# Laboratory results taken from patent US7906486B2, “Method of treating or preventing tissue deterioration, injury or damage due to disease of mucosa” (SciClone Pharmaceuticals, Inc., priority 2007, dated 2011).
# “And” between values parts separate entries of the source, which are not always exact repeats. Identical values can stand only once.
# How the values were obtained:
# [1] = Weights and survival (Example 1, SCI-01); assay type: in vivo, Syrian Golden Hamsters
# Method: (§1) All animals were weighed daily and their survival recorded, in order to assess possible differences in animal weight among treatment groups as an indication for mucositis severity and/or possible toxicity resulting from the treatments.
# The mean daily percent weight change data was evaluated. The saline (PBS) treated control hamsters gained an average of 70.4% of their starting weight during the study. Hamsters in the group receiving SCV-07 at 1 ug/kg on days −1 to 16 gained an average of 68.4% of their starting weight during the study. Hamsters in the group receiving SCV-07 at 10 ug/kg on days −1 to 16 gained an average of 70.3% of their starting weight during the study. Hamsters in the group receiving SCV-07 at 100 ug/kg on days −1 to 16 gained an average of 82.0% of their starting weight during the study. The significance of these differences was evaluated by calculating the area-under-the-curve (AUC) for the weight gain of each animal, and then comparing the different treatment groups using a One-Way ANOVA test.
# thymocyte and lymphocyte = conditions: in vitro; cited from earlier work
# bone marrow cells = conditions: cited from earlier work
# [2] = Weights and survival (Example 3, SCI-03); assay type: in vivo, Syrian Golden Hamsters
# Method: as §1
# There were no significant differences in weight changes between study groups. The mean daily percent weight change data was evaluated. The saline treated control hamsters gained an average of 76.3% of their starting weight during the study. Hamsters in the group receiving SCV-07 at 100 μg/kg on days −1 to 29 gained an average of 80.7% of their starting weight during the study. Hamsters in the group receiving SCV-07 at 100 μg/kg on days of radiation only gained an average of 66.3% of their starting weight during the study. Hamsters in the group receiving SCV-07 at 100 μg/kg on day −1, day 4, day 5 and days 10-29 gained an average of 69.7% of their starting weight during the study. The significance of these differences was evaluated by calculating the area-under-the-curve (AUC) for the weight gain of each animal, and then comparing the different treatment groups using a One-Way ANOVA test.
# [3] = individual animals, Group 4 (SCV-07 100 μg/kg on days −1, 4, 5 and 10-29), second part of table
smiles,measurement,setting,value
"N[C@H](CCC(=O)N[C@@H](Cc1c[nH]c2ccccc12)C(=O)O)C(=O)O [SCV-07, γ-D-glutamyl-L-tryptophan]","average weight gain, % of starting weight during the study",[1]; 1 ug/kg on days -1 to 16,68.4%
same,"average weight gain, % of starting weight during the study",[1]; 10 ug/kg on days -1 to 16,70.3%
same,"average weight gain, % of starting weight during the study",[1]; 100 ug/kg on days -1 to 16,82.0%
same,Con-A-induced thymocyte and lymphocyte proliferation,thymocyte and lymphocyte,increases
same,expression of Thy-1.2 on bone marrow cells,bone marrow cells,stimulates
same,"average weight gain, % of starting weight during the study","[2]; 100 ug/kg on day -1, day 4, day 5 and days 10-29",69.7%
same,"average weight gain, % of starting weight during the study",[2]; 100 ug/kg on days -1 to 29,80.7%
same,"average weight gain, % of starting weight during the study",[2]; 100 ug/kg on days of radiation only,66.3%
same,"Animal weight, Day 18",[2]; [3],113 and 121 and 88 and 98
same,"Animal weight, Day 19",[2]; [3],118 and 127 and 92 and 102
same,"Animal weight, Day 20",[2]; [3],118 and 128 and 92 and 104
same,"Animal weight, Day 21",[2]; [3],119 and 131 and 94 and 109
same,"Animal weight, Day 22",[2]; [3],120 and 133 and 95 and 109
same,"Animal weight, Day 23",[2]; [3],120 and 135 and 97 and 111
same,"Animal weight, Day 24",[2]; [3],123 and 135 and 99 and 112
same,"Animal weight, Day 25",[2]; [3],122 and 137 and 98 and 113
same,"Animal weight, Day 26",[2]; [3],123 and 139 and 100 and 118
same,"Animal weight, Day 27",[2]; [3],127 and 140 and 102 and 121
same,"Animal weight, Day 28",[2]; [3],128 and 142 and 103 and 122
same,"Animal weight, Day 29",[2]; [3],128 and 142 and 102 and 118
same,"Animal weight, Day 30",[2]; [3],132 and 146 and 105 and 126
same,"Animal weight, Day 31",[2]; [3],134 and 150 and 108 and 126
same,"Animal weight, Day 32",[2]; [3],134 and 149 and 109 and 129
same,"Animal weight, Day 33",[2]; [3],137 and 154 and 112 and 132
same,"Animal weight, Day 35",[2]; [3],140 and 154 and 113 and 134
same,"Animal weight, Day 34","[2]; individual animals, Group 4 (SCV-07 100 μg/kg on days −1, 4, 5 and 10-29), second part of table, c18, day inferred as 34",139 and 153 and 112 and 133
